As a reminder, the IC50 is the midpoint of a concentration-inhibition curve. The Kd is the concentration at which binding is half-saturated.

For experiment [1], the species on record is Homo sapiens. Briefly: Binding affinity to N-terminal poly-His tail-tagged human FPPS-T266S mutant (67 to 419 residues) expressed in Escherichia coli BL21(DE3)-pLysS cells assessed as binding of Leu2 residue of peptide to FPPS binding pocket by measuring STD effect at protein:compound molar ratio of 1:100 by STD-NMR analysis.
The test system of experiment [2] is MC-38. Briefly: Antiproliferative activity against mouse MC38 cells assessed as inhibition of cell proliferation incubated for 24 hrs by IncuCyte Label-Free Cell Proliferation Assay. The class given is functional, cell-based. The settings on record: MC-38, 24 h.
The species entered for experiment [3] is Homo sapiens. Briefly: Inhibition of N-terminal poly-His tail-tagged human FPPS-T266S mutant (67 to 419 residues) expressed in Escherichia coli BL21(DE3)-pLysS cells assessed as inhibition of GPP production using IPP and DMAPP as substrate at 250 to 1000 uM by 1H 1D NMR enzymatic analysis. The settings on record: dose 250-1000 µM.
The species entered for experiment [4] is Homo sapiens. Briefly: Binding affinity to N-terminal poly-His tail-tagged human FPPS-T266S mutant (67 to 419 residues) expressed in Escherichia coli BL21(DE3)-pLysS cells assessed as binding of Thr5 residue of peptide to FPPS binding pocket by measuring STD effect at protein:compound molar ratio of 1:100 by STD-NMR analysis. More on the design: concentration or dose not given beside the values.

Experiment [5] has as its system MC-38. Briefly: Antiproliferative activity against mouse MC38 cells assessed as inhibition of cell proliferation incubated for 48 hrs by IncuCyte Label-Free Cell Proliferation Assay. The class given is functional, cell-based. The settings on record: dose 1.2-40 µM.
For experiment [6], the species on record is Homo sapiens. Nature of the experiment: Binding affinity to N-terminal poly-His tail-tagged FPPS-T266S mutant (67 to 419 residues) (unknown origin) expressed in Escherichia coli BL21(DE3)-pLysS cells assessed as binding of Thr2 residue of peptide to FPPS binding pocket by measuring STD effect at protein:compound molar ratio of 1:100 by STD-NMR analysis. Details: concentration or dose not given beside the values.

Experiment [7] has as its system MC-38. Nature of the experiment: Antiproliferative activity against mouse MC38 cells assessed as inhibition of cell proliferation at 1.2 to 40 uM incubated for 48 hrs by IncuCyte Label-Free Cell Proliferation Assay. The settings on record: dose 1.2-40 µM. The class given is functional, cell-based.
The subject of experiment [8] is MC-38. Nature of the experiment: Induction of changes in alanine content in mouse MC38 cells intracellular-metabolome at 40 uM incubated for 12 to 24 hrs by NMR-[…] analysis. It is filed as functional, cell-based. The settings on record: time 12-24 hrs.
A short description of experiment [9]: Binding affinity to N-terminal poly-His tail-tagged human FPPS-T266S mutant (67 to 419 residues) expressed in Escherichia coli BL21(DE3)-pLysS cells assessed as dissociation constant in presence of Zol by surface plasmon resonance analysis. In general terms: SPR reads the build-up and loss of mass on a sensor chip optically.
Experiment [10] deals with MC-38. Nature of the experiment: Induction of changes in valine content in mouse MC38 cells extracellular-metabolome at 40 uM incubated for 12 to 24 hrs by NMR-[…] analysis. The settings on record: time 12-24 hrs. The class given is functional, cell-based.
Experiment [11] concerns MC-38. Briefly: Induction of changes in choline content in mouse MC38 cells intracellular-metabolome at 40 uM incubated for 12 to 24 hrs by NMR-[…] analysis. The class given is functional, cell-based. The settings on record: time 12-24 hrs.
A short description of experiment [12]: Binding affinity to N-terminal poly-His tail-tagged human FPPS-T266S mutant (67 to 419 residues) expressed in Escherichia coli BL21(DE3)-pLysS cells assessed as dissociation constant by surface plasmon resonance analysis.
Experiment [13] can be described thus: Inhibition of N-terminal poly-His tail-tagged human FPPS-T266S mutant (67 to 419 residues) expressed in Escherichia coli BL21(DE3)-pLysS cells assessed as inhibition of GPP production using IPP and DMAPP as substrate by 1H 1D NMR enzymatic analysis.
Experiment [14] concerns MC-38. Nature of the experiment: Induction of changes in 3-methyl-2-oxo-valerate content in mouse MC38 cells extracellular-metabolome at 40 uM incubated for 12 to 24 hrs by NMR-[…] analysis. The class given is functional, cell-based. The settings on record: time 12-24 hrs.
In experiment [15] the test system is MC-38. Nature of the experiment: Induction of changes in ATP content in mouse MC38 cells intracellular-metabolome at 40 uM incubated for 12 to 24 hrs by NMR-[…] analysis. The class given is functional, cell-based. Particulars: time 12-24 hrs.
The test system of experiment [16] is MC-38. Briefly: Downregulation of Mvk gene expression in mouse MC38 cells at 40 uM incubated for 12 hrs by qRT-PCR analysis. The class given is functional, cell-based.
Experiment [17] relates to MC-38. Nature of the experiment: Antiproliferative activity against mouse MC38 cells assessed as inhibition of cell proliferation at 20 to 40 uM incubated for 48 hrs by IncuCyte Label-Free Cell Proliferation Assay. The class given is functional, cell-based. The settings on record: dose 20-40 µM.
Experiment [18] concerns MC-38. Briefly: Antiproliferative activity against mouse MC38 cells assessed as inhibition of cell proliferation at 20 to 40 uM incubated for 12 hrs by IncuCyte Label-Free Cell Proliferation Assay. The class given is functional, cell-based. Particulars: dose 20-40 µM.
Experiment [19] is filed under the species Homo sapiens. Briefly: Binding affinity to N-terminal poly-His tail-tagged human FPPS-T266S mutant (67 to 419 residues) expressed in Escherichia coli BL21(DE3)-pLysS cells assessed as binding of pThr2 residue of peptide to FPPS binding pocket by measuring STD effect at protein:compound molar ratio of 1:100 by STD-NMR analysis.

Calls of active or inactive are those of the source. The calls are words filed in the database; no cut-off is given here. Square brackets hold non-standard residues; d marks the D form. Peptide text beside a SMILES is read from it. pY = N[C@@H](Cc1ccc(OP(=O)(O)O)cc1)C(=O)O; pT = C[C@@H](OP(=O)(O)O)[C@H](N)C(=O)O; pS = N[C@@H](COP(=O)(O)O)C(=O)O

Regarding H-FLYST-OH, the results for the Activity in the experiment listed under Homo sapiens [1], in the experiment filed under Homo sapiens [4] and in the experiment on MC-38 [5] were 11.8%, 4.28% and “Dose-Dependent Effect”, respectively. Moreover, the IC50 in the experiment on MC-38 [2] came out at 7.48 µM. Also, the inhibition result in the experiment listed under Homo sapiens [3] was “inactive”.
On to `C[C@@H](O)[C@H](NC(=O)[C@@H]1CCCN1C(=O)[C@H](Cc1cnc[nH]1)NC(=O)[C@@H](NC(=O)[C@@H](N)Cc1ccc(OP(=O)(O)O)cc1)[C@@H](C)O)C(=O)O` (H-[pY]THPT-OH), for which the IC50 in the experiment with MC-38 [2] came to 17.9 µM. Also, the Activity in the experiment filed under Homo sapiens [6] and in the experiment listed under Homo sapiens [4] was 8% throughout. The result in the experiment on MC-38 [7] was inactive.
Take `CC(C)C[C@H](NC(=O)[C@@H](N)Cc1ccccc1)C(=O)N[C@@H](Cc1ccc(O)cc1)C(=O)N[C@@H](CO)C(=O)N[C@H](C(N)=O)[C@@H](C)OP(=O)(O)O` (H-FLYS[pT]-NH2): the Activity in the experiment listed under Homo sapiens [1] is 22%; in the experiment listed under Homo sapiens [4] it was 12.5%; in the experiment on MC-38 [5], “Dose-Dependent Effect”. The outcome in the experiment with MC-38 [8], in the experiment with MC-38 [10] and with MC-38 [11] was Active. Moreover, the Kd amounted to 10 µM in experiment [9] and 14.6 µM in experiment [12]. Also, the IC50 was 9.77 µM with MC-38 [2] and 644 µM in [13].
As for `C[C@@H](O)[C@H](NC(=O)[C@@H](N)Cc1ccc(O)cc1)C(=O)N[C@@H](Cc1cnc[nH]1)C(=O)N1CCC[C@H]1C(=O)N[C@H](C(=O)O)[C@@H](C)OP(=O)(O)O` (H-YTHP[pT]-OH), the outcome in the experiment on MC-38 [14], with MC-38 [15] and in the experiment on MC-38 [17] was Active. The concentration for half-maximal inhibition (IC50) in the experiment with MC-38 [2] is 8.99 µM. The inhibition entry in the experiment on MC-38 [16] is “Active”. Moreover, the Activity in the experiment filed under Homo sapiens [6] came out at 14%.
As for `CC(C)C[C@H](NC(=O)[C@@H](N)Cc1ccccc1)C(=O)N[C@@H](Cc1ccc(O)cc1)C(=O)N[C@@H](COP(=O)(O)O)C(=O)N[C@H](C(=O)O)[C@@H](C)O` (H-FLY[pS]T-OH), the values for the Activity in the experiment filed under Homo sapiens [1], in the experiment filed under Homo sapiens [4] and with MC-38 [5] were 22%, 21.5% and “Dose-Dependent Effect”, respectively. The concentration for half-maximal inhibition (IC50) with MC-38 [2] was determined as 4.16 µM.
`C[C@@H](OP(=O)(O)O)[C@H](NC(=O)[C@@H](N)CC(=O)O)C(=O)N[C@@H](Cc1ccccc1)C(=O)N1CCC[C@H]1C(=O)N[C@@H](CC(=O)O)C(=O)O` (H-D[pT]FPD-OH): in the experiment with MC-38 [18], the outcome was inactive. For the same compound, in the experiment filed under Homo sapiens [3], the inhibition result was “inactive”. The Activity in the experiment listed under Homo sapiens [19] turned out to be 26.7%. In addition, in the experiment with MC-38 [17], the outcome was Active.

The record behind these values is ChEMBL document CHEMBL6127069, “Peptides as modulators of FPPS enzyme: A multifaceted evaluation from the design to the mechanism of action” (Eur J Med Chem, 2024).
